Values after ≈ are worked out from the molar mass of the structure shown. Read-outs that look alike come from different tables or passages of the source. Values belong to the molecule of their own block, whether it stands above or below them.
Legend:
[1] = type: in vivo, NSG mice; conditions: for AUC(0-inf) / CL/F / Cmax / Tmax / half-life / AUC(0-t): NSG, mouse, in vivo, po; for AUC(0-t): AUC0–24hrs
LCK (T316I) in KOPT-K1-R = LCK (T316I) in KOPT-K1-R (Homo sapiens, UniProt P06239, T316I); conditions: 100nM, 3 hrs treatment
Chain of LCK (T316I) in KOPT-K1-R (P06239 whole entry T316I): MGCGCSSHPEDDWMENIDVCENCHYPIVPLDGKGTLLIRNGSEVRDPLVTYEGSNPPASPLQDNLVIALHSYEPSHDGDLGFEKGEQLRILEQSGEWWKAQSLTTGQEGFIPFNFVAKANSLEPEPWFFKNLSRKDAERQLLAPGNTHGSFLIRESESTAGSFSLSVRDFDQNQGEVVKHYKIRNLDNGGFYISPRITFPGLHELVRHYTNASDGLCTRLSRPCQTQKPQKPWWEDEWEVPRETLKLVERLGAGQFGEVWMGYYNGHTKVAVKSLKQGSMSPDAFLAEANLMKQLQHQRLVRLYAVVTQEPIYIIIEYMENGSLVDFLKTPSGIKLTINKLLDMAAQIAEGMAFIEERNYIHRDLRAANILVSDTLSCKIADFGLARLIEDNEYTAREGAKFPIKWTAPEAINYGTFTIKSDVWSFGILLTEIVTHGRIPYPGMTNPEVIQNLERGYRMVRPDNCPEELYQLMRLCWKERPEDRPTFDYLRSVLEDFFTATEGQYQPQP

[2] = system: LCK-activated T-ALL PDX models; experiment: In vivo evaluation of ponatinib efficacy in T-ALL PDXs; set-up: species or system NSG mice; conditions: 30 mg/kg once daily oral, three T-ALL PDX models, blast % in peripheral blood
[3] = molecular target: pLCK (phosphorylated LCK) (Homo sapiens, UniProt P06239); experiment: PD: pLCK; type: in vivo; conditions: for Median duration of pLCK/LCK <50% (10th-90th percentile): mice (Table 2)
Chain of pLCK (phosphorylated LCK) (P06239 whole entry): as the sequence (P06239 whole entry T316I) above, with I316T counted along it

human T-ALL samples = experiment: Ex vivo leukemia sensitivity; type: cell-based
pCRKL = conditions: chronic myeloid leukemia (CML) patients; cited from earlier work

Compound: Cc1ccc(C(=O)Nc2ccc(CN3CCN(C)CC3)c(C(F)(F)F)c2)cc1C#Cc1cnc2cccnn12 [ponatinib]
AUC(0-inf) ([1]; 15 mg/kg): 1530 ng·h/mL | CL/F ([1]; 15 mg/kg): 163 mL/min/kg | Cmax ([1]; 15 mg/kg): 181 ng/mL | Tmax ([1]; 15 mg/kg): 3.04 h | half-life ([1]; 15 mg/kg): 1.92 h | AUC(0-t) ([1]; 15 mg/kg, ponatinib 15 mg (15 mg/kg) single oral dose, NSG mice, median (5th-95th percentile)): 1530 ng·h/mL | AUC(0-inf) ([1]; 30 mg/kg): 3010 ng·h/mL | CL/F ([1]; 30 mg/kg): 166 mL/min/kg | Cmax ([1]; 30 mg/kg): 356 ng/mL | Tmax ([1]; 30 mg/kg): 3.08 h | half-life ([1]; 30 mg/kg): 1.92 h | AUC(0-t) ([1]; 30 mg/kg, ponatinib 30 mg (30 mg/kg) single oral dose, NSG mice, median (5th-95th percentile)): 3000 ng·h/mL | AUC0–24hrs ([1]; ponatinib 30 mg (30 mg/kg) single oral dose, NSG mice, median (5th-95th percentile)): 2996.56 (2707.46–3351.17) ng hr/mL | Block of LCK phosphorylation (LCK (T316I) in KOPT-K1-R): around 50% | Leukemia growth in mice vs vehicle control [2]: significantly inhibited leukemia growth | EC90 ([3]; po, read-out: EC90 (CV%)): 0.063 µg/mL (≈ 0.118 µM) | Median duration of pLCK/LCK <50% (10th-90th percentile) ([3]; ponatinib 15 mg/kg oral): 15 mg/kg 10.5 (0, 24.0) hrs/day | Median duration of pLCK/LCK <50% (10th-90th percentile) ([3]; ponatinib 30 mg/kg oral): 30 mg/kg 14.8 (0, 24.0) hrs/day | LC50 compared with that of dasatinib (human T-ALL samples; 51 samples with both drugs tested, P =0.0038, Wilcoxon matched-pairs signed rank test): significantly lower | CC50 (human T-ALL samples; Homo sapiens, read-out: Median LC50): 0.433 µM | Samples classified as sensitive to ponatinib (LC50 cutoff 90nM) (human T-ALL samples; all 52 T-ALL cases (n=17)): 32.7%

AUC(0-inf) ([1]; 20 mg/kg): 500 ng·h/mL | CL/F ([1]; 20 mg/kg): 667 mL/min/kg | Cmax ([1]; 20 mg/kg): 102 ng/mL | Tmax ([1]; 20 mg/kg): 1.17 h | half-life ([1]; 20 mg/kg): 0.35 h | AUC(0-inf) ([1]; 40 mg/kg): 1950 ng·h/mL | CL/F ([1]; 40 mg/kg): 341 mL/min/kg | Cmax ([1]; 40 mg/kg): 366 ng/mL | Tmax ([1]; 40 mg/kg): 1.17 h | half-life ([1]; 40 mg/kg): 0.34 h | AUC(0-t) ([1]; 40 mg/kg): 1940 ng·h/mL
Compound: Cc1nc(Nc2ncc(C(=O)Nc3c(C)cccc3Cl)s2)cc(N2CCN(CCO)CC2)n1 [dasatinib]
Time above 50% pCRKL inhibition considered sufficient to elicit a clinical response (pCRKL): 12.8 hrs per day | Dasatinib sensitivity (LC50 <80nM) observed (human T-ALL samples; adult T-ALL): 9.1% | Dasatinib sensitivity (LC50 <80nM) observed (human T-ALL samples; pediatric T-ALL): 47.5%

— publication PMC10347458 (Leukemia, 2023)
